Assay type in all cases: biochemical
The target of one test is T1, MMP-16 (Homo sapiens, UniProt P51512).
T1 construct: purchased R&D Systems 1785-MP
The test can be described thus: In vitro MMP-16 inhibition test. To be noted: human MMP-16. The source says:
(§1) The MMP-mediated amidolytic cleavage of a suitable peptide substrate leads to an increase in fluorescent light here too. The signal intensity of the fluorescent light is directly proportional to the enzyme activity. The active concentration of a test compound at which half the enzyme is inhibited (50% signal intensity of the fluorescent light) is reported as the IC50 value.
Recombinant MMP-16 (R&D Systems, 1785-MP) is enzymatically activated in accordance with the manufacturer's instructions using recombinant furin (R&D Systems, 1503-SE). 1 μl of the test compound to be analysed (as a solution in DMSO, suitable concentrations e.g. 1 nM to 30 μM) is pipetted into 24 μl of activated enzyme (final concentration e.g. 1 nM) in reaction buffer (50 mM Tris/HCl pH 7.5, 10 mM CaCl2, 150 mM NaCl, 0.05% Brij®-35) in a white 384-hole microtiter plate (MTP). The enzymatic reaction is started by adding the intramolecularly quenched Mca-Lys-Pro-Leu-Gly-Leu-Dpa(Dnp)-Ala-Arg-NH2 substrate (final concentration e.g. 5 μM; R&D Systems, ES-010), so as to result in a total test volume of 50 μl. The course of the MMP-16 reaction is measured by measuring the fluorescence intensity (excitation 320 nm, emission 410 nm) over a suitable period of time (e.g. over 120 min at a temperature of 32° C.).

A further test deals with T2, MMP-1 (Homo sapiens, UniProt P03956).
T2 construct: purchased R&D Systems 901-MP
T2 sequence (P03956 100-469): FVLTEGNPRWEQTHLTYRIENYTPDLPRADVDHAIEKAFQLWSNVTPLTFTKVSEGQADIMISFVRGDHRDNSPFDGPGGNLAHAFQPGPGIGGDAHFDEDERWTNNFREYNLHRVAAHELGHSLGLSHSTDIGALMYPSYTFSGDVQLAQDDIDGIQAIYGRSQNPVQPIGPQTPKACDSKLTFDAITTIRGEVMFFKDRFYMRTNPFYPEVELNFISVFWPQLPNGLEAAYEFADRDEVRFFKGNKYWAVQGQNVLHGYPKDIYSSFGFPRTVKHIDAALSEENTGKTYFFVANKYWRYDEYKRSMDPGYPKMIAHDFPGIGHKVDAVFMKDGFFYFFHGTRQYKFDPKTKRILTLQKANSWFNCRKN
The test can be described thus: In vitro MMP-1 inhibition test. To be noted: human MMP-1.
Text: as §1
(§2) Recombinant MMP-1 (R&D Systems, 901-MP) is chemically activated in accordance with the manufacturer's instructions using APMA. 1 μl of the test compound to be analysed (as a solution in DMSO, suitable concentrations e.g. 1 nM to 30 μM) is pipetted into 24 μl of activated enzyme (final concentration e.g. 2 nM) in reaction buffer (50 mM Tris/HCl pH 7.5, 10 mM CaCl2, 150 mM NaCl, 0.05% Brij®-35) in a white 384-hole microtiter plate (MTP). The enzymatic reaction is started by adding the intramolecularly quenched Mca-Pro-Leu-Gly-Leu-Dpa(Dnp)-Ala-Arg-NH2 substrate (final concentration e.g. 10 μM; R&D Systems, ES-001), so as to result in a total test volume of 50 μl. The course of the MMP-1 reaction is measured by measuring the fluorescence intensity (excitation 320 nm, emission 410 nm) over a suitable period of time (e.g. over 120 min at a temperature of 32° C.).

A further test deals with T3, MMP-10 (Homo sapiens, UniProt P09238).
T3 construct: purchased R&D Systems 910-MP
Briefly: In vitro MMP-10 inhibition test. To be noted: human MMP-10.
Text: as §1
as §2, with “MMP-10” for “MMP-1”, “910-MP)” for “901-MP)”, “Mca-Arg-Pro-Lys-Pro-Val-Glu-Nval-Trp-Arg-Lys(Dnp)-NH2” for “Mca-Pro-Leu-Gly-Leu-Dpa(Dnp)-Ala-Arg-NH2”, “ES-002),” for “ES-001),”

The target of test [1] is T4, human macrophage elastase (HME/hMMP-12) (Homo sapiens, UniProt P39900).
T4 construct: purchased R&D Systems 917-MP
Briefly: In vitro HME inhibition test (standard or high-sensitivity). To be noted: in some cases mean values, rounded to two significant figures. An outline of the steps: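 Autoactivated HME (0.5 nM; high-sensitivity format 0.05 nM, ~16 h) with 5 μM quenched Mca-PLGLEEA-Dap(Dnp)-NH2 substrate in HEPES pH 7.4, NaCl, CaCl2, ZnCl2, EDTA, Brij buffer, 2 h at 37° C. Fluorescence at ex 323/em 393 nm; IC50 from signal versus concentration.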

SMILES strings stand for the structures.

T4 sequence (P39900 106-470): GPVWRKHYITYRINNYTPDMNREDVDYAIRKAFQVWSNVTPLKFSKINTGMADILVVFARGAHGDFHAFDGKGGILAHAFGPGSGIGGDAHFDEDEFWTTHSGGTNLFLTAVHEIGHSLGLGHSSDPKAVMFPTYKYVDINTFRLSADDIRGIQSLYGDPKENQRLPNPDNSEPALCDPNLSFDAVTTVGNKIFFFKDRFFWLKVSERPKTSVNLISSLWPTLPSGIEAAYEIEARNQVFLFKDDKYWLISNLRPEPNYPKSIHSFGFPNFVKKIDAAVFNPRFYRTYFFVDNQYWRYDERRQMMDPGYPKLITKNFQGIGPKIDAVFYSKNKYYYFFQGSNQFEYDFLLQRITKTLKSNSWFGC
T1 sequence (P51512 120-564 limits assumed): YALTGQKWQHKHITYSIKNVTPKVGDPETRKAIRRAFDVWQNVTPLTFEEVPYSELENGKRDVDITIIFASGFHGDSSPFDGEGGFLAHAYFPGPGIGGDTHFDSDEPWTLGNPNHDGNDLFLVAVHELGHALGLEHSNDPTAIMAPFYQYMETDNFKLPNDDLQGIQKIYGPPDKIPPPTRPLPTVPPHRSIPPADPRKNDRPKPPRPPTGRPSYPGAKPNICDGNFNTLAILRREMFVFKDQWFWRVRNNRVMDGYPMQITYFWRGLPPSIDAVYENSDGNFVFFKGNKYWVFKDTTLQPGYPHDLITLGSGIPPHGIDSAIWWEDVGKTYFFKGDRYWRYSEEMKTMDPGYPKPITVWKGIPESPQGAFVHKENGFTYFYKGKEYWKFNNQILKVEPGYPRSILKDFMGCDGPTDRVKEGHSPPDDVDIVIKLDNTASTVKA
T3 sequence (P09238 99-476): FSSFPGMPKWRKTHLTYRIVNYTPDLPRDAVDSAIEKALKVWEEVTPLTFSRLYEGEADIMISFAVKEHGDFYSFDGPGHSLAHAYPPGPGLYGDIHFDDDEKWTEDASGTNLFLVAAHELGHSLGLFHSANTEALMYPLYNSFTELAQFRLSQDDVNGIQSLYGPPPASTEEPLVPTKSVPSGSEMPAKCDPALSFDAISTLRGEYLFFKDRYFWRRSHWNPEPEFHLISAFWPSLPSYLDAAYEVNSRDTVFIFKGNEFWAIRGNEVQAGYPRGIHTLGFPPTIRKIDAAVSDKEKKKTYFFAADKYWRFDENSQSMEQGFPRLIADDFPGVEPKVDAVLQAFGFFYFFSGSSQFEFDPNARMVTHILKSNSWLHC

`O=C(CC(CCn1nnc2ccccc2c1=O)C(=O)O)c1coc2cc(OCCC3CCOCC3)ccc12` (racemic) [Example 74, (+/−)-4-Oxo-2-[2-(4-oxo-1,2,3-benzotriazin-3(4H)-yl)ethyl]-4-{6-[2-(tetrahydro-2H-pyran-4-yl)ethoxy]-1-benzofur-3-yl}butanoic acid]: the IC50 (commonly the concentration at which inhibition is half-maximal) was 6.4 µM against MMP-16, greater than 40 µM at MMP-1, 2.1 µM against MMP-10 and 0.00018 µM in test [1].

Turning to `O=C(CC(CCn1nnc2ccccc2c1=O)C(=O)O)c1noc2cc(OCC3CCCCC3)ccc12` (racemic) [Example 153, (+/−)-4-[6-(Cyclohexylmethoxy)-1,2-benzoxazol-3-yl]-4-oxo-2-[2-(4-oxo-1,2,3-benzotriazin-3(4H)-yl)ethyl]butanoic acid], the IC50 was greater than 40 µM against MMP-16, greater than 40 µM at MMP-1, 14 µM against MMP-10 and 0.0013 µM in test [1].

`O=C(CC(CCn1nnc2ccccc2c1=O)C(=O)O)c1cc2cc(OCCc3ccc(Cl)cc3)ccc2o1` (racemic) [Example 2, (+/−)-4-{5-[2-(4-Chlorophenyl)ethoxy]-1-benzofur-2-yl}-4-oxo-2-[2-(4-oxo-1,2,3-benzotriazin-3(4H)-yl)ethyl]butanoic acid]: the 50% inhibitory concentration (IC50) is greater than 40 µM on MMP-16, greater than 40 µM against MMP-1, 16 µM at MMP-10 and 0.0026 µM in test [1].

`O=C(CC(CCn1nnc2ccccc2c1=O)C(=O)O)c1cc2cc(OCc3ccc(C(F)(F)F)cc3)ccc2o1` (racemic) [Example 44, (+/−)-4-Oxo-2-[2-(4-oxo-1,2,3-benzotriazin-3(4H)-yl)ethyl]-4-(5-{[4-(trifluoromethyl)benzyl]oxy}-1-benzofur-2-yl)butanoic acid]: the IC50 on MMP-16 was greater than 40 µM; against MMP-1, greater than 40 µM; against MMP-10, 29 µM; in test [1], 0.00062 µM.

For `O=C(CC(CCn1nnc2ccccc2c1=O)C(=O)O)c1cc2cc(OCC3CCCCC3)ccc2o1` (racemic) [Example 8, (+/−)-4-[5-(Cyclohexylmethoxy)-1-benzofur-2-yl]-4-oxo-2-[2-(4-oxo-1,2,3-benzotriazin-3(4H)-yl)ethyl]butanoic acid], the IC50 at MMP-16 was greater than 40 µM; on MMP-1, greater than 40 µM; against MMP-10 it was greater than 40 µM; in test [1], 0.002 µM.

Take `CCCCCCCOc1ccc2c(C(=O)CC(CCn3nnc4ccccc4c3=O)C(=O)O)coc2c1` (racemic) [Example 101, (+/−)-4-[6-(Heptyloxy)-1-benzofur-3-yl]-4-oxo-2-[2-(4-oxo-1,2,3-benzotriazin-3(4H)-yl)ethyl]butanoic acid]: the IC50 against MMP-16 was greater than 40 µM; at MMP-1, greater than 40 µM; on MMP-10, greater than 40 µM; in test [1] it was 0.00053 µM.

Take `O=C(CC(CCn1nnc2ccccc2c1=O)C(=O)O)c1noc2cc(OCCc3ccccc3)ccc12` (racemic) [Example 144, (+/−)-4-Oxo-2-[2-(4-oxo-1,2,3-benzotriazin-3(4H)-yl)ethyl]-4-[6-(2-phenylethoxy)-1,2-benzoxazol-3-yl]butanoic acid]: the IC50 was 15 µM against MMP-16, greater than 40 µM against MMP-1, 29 µM at MMP-10 and 0.0014 µM in test [1].

Take `CCCCCOc1ccc2c(C(=O)CC(CCn3nnc4ccccc4c3=O)C(=O)O)coc2c1` (single isomer, unassigned) [Example 91, 4-Oxo-2-[2-(4-oxo-1,2,3-benzotriazin-3(4H)-yl)ethyl]-4-[6-(pentyloxy)-1-benzofur-3-yl]butanoic acid]: the IC50 was 13 µM at MMP-16, greater than 40 µM against MMP-1, 4.7 µM on MMP-10 and 0.00023 µM in test [1].

Turning to `O=C(CC(CCn1nnc2ccccc2c1=O)C(=O)O)c1cc2ccc(OCC3CC3)cc2s1` (racemic) [Example 111, (+/−)-4-[6-(Cyclopropylmethoxy)-1-benzothiophen-2-yl]-4-oxo-2-[2-(4-oxo-1,2,3-benzotriazin-3(4H)-yl)ethyl]butanoic acid], the IC50 on MMP-16 is greater than 40 µM; against MMP-1, greater than 40 µM; at MMP-10 it was 4.7 µM; in test [1], 0.0033 µM.

As for `O=C(CC(CCn1nnc2ccccc2c1=O)C(=O)O)c1cc2ccc(OCC3CC3)cc2s1` (single isomer, unassigned; (+)) [Example 112, (+)-4-[6-(Cyclopropylmethoxy)-1-benzothiophen-2-yl]-4-oxo-2-[2-(4-oxo-1,2,3-benzotriazin-3(4H)-yl)ethyl]butanoic acid], the IC50 against MMP-16 was 37 µM; at MMP-1 it was greater than 40 µM; on MMP-10, 2.5 µM; in test [1] it was 0.0022 µM.

Consider `O=C(CC(CCn1nnc2ccccc2c1=O)C(=O)O)c1cc2cc(OCc3ccc(F)cc3)ccc2o1` (single isomer, unassigned; (+)) [Example 23, (+)-4-{5-[(4-Fluorobenzyl)oxy]-1-benzofur-2-yl}-4-oxo-2-[2-(4-oxo-1,2,3-benzotriazin-3(4H)-yl)ethyl]butanoic acid], for which the IC50 was 30 µM against MMP-16, greater than 40 µM against MMP-1, 11 µM at MMP-10 and 0.00081 µM in test [1].

For `O=C(CC(CCn1nnc2ccccc2c1=O)C(=O)O)c1cc2ccc(OCCCC3CCCCC3)cc2o1` (racemic) [Example 71, (+/−)-4-[6-(3-Cyclohexylpropoxy)-1-benzofur-2-yl]-4-oxo-2-[2-(4-oxo-1,2,3-benzotriazin-3(4H)-yl)ethyl]butanoic acid], the IC50 on MMP-16 was greater than 40 µM; on MMP-1 it was greater than 40 µM; against MMP-10 it was greater than 40 µM; in test [1], 0.0022 µM.

`O=C(CC(CCn1nnc2ccccc2c1=O)C(=O)O)c1cc2ccc(OCCc3ccccc3)cc2s1` (racemic) [Example 114, (+/−)-4-Oxo-2-[2-(4-oxo-1,2,3-benzotriazin-3(4H)-yl)ethyl]-4-[6-(2-phenylethoxy)-1-benzothiophen-2-yl]butanoic acid]: the IC50 against MMP-16 was 28 µM; against MMP-1, greater than 40 µM; against MMP-10, 3.4 µM; in test [1], 0.0003 µM.

As to `CCCCCCCOc1ccc2cc(C(=O)CC(CCn3nnc4ccccc4c3=O)C(=O)O)oc2c1` (single isomer, unassigned; (+)) [Example 69, (+)-4-[6-(Heptyloxy)-1-benzofur-2-yl]-4-oxo-2-[2-(4-oxo-1,2,3-benzotriazin-3(4H)-yl)ethyl]butanoic acid acid], the IC50 against MMP-16 is greater than 40 µM; at MMP-1, greater than 40 µM; at MMP-10 it was 28 µM; in test [1] it was 0.001 µM.
